Experimental data: PMC11580438, “Enhanced cell stress response and protein degradation capacity underlie artemisinin resistance in Plasmodium falciparum” (mSphere, 2024)

Columns and labels:
[1] = biological target: T1, P. falciparum proteasome, β5 activity (20S CP / 26S) (Plasmodium falciparum, UniProt Q8IJT1); test: Suc-LLVY-AMC cleavage in lysate of treated trophozoites; assay type: cell-based; conditions: intact parasites treated 3 h with 50 or 700 nM, then lysed; direct action on the proteasome not shown; non-specific alkylator; pH 7.5, 37 °C
T1 construct: gene PF3D7_1011400; native proteasome in NP-40 lysate of 26-30 hpi trophozoites; with Proteasome subunit beta type-7 (beta2 subunit); Proteasome subunit beta type-6 (beta1 subunit)
T1 sequence (Q8IJT1 entry or part of it): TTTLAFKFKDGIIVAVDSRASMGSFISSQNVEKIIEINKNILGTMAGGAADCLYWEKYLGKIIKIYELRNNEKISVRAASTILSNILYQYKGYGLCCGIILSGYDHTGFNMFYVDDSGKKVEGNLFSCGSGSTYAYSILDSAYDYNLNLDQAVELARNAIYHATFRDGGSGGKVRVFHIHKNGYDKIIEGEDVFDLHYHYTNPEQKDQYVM

[2] = biological target: T2, P. falciparum proteasome, β1 activity (20S CP / 26S) (Plasmodium falciparum, UniProt Q8I0U7); test: Ac-nLPnLD-AMC cleavage in lysate of treated trophozoites; assay type: cell-based; conditions: intact parasites treated 3 h with 50 or 700 nM, then lysed; direct action on the proteasome not shown; non-specific alkylator; pH 7.5, 37 °C
T2 construct: gene PF3D7_0931800; native proteasome in NP-40 lysate of 26-30 hpi trophozoites; with Proteasome subunit beta type-7 (beta2 subunit); Proteasome subunit beta type-5
T2 sequence (Q8I0U7 entry or part of it): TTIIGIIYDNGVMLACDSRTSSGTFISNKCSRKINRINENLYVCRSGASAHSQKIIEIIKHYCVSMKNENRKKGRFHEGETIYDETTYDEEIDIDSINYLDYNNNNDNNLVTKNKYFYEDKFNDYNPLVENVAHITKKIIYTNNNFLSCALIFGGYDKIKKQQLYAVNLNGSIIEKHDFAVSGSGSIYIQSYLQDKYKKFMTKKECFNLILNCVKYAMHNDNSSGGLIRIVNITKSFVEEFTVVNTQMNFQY

[3] = biological target: T3, P. falciparum proteasome, β2 activity (20S CP / 26S) (Plasmodium falciparum, UniProt Q8I6T3); test: Ac-RLR-AMC cleavage in lysate of treated trophozoites; assay type: cell-based; conditions: intact parasites treated 3 h with 50 or 700 nM, then lysed; direct action on the proteasome not shown; non-specific alkylator; pH 7.5, 37 °C
T3 construct: gene PF3D7_1328100; native proteasome in NP-40 lysate of 26-30 hpi trophozoites; with Proteasome subunit beta type-5; Proteasome subunit beta type-6 (beta1 subunit)
T3 sequence (Q8I6T3 entry or part of it): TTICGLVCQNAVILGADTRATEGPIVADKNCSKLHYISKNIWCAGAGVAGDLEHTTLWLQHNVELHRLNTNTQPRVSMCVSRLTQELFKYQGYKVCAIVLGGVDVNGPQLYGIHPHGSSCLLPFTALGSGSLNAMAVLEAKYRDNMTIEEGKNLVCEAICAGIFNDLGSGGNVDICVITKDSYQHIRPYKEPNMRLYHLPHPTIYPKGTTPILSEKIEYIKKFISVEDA

[4] = biological target: T1, P. falciparum proteasome, β5 activity (20S CP / 26S); test: Suc-LLVY-AMC cleavage in lysate of treated trophozoites; assay type: cell-based
[5] = test system: T4, P. falciparum proteasome, β5 activity (20S CP / 26S); conditions: intact Kelch13 C580Y parasites treated 3 h, then lysed; direct action on the proteasome not shown; 6 µM substrate, pH 7.5, 37 °C; mutation in the neighbouring β2 subunit, β5 wild type
T4 construct: gene beta5

Structure (SMILES)	% activity [1]	% activity [2]	% activity [3]	inhibition at 3 µM [4] [%]	% inhibition at 3 μM [5] [%]
C[C@@H]1CC[C@H]2[C@@H](C)C(O)O[C@@H]3O[C@@]4(C)CC[C@@H]1[C@]32OO4 (some centres unmarked) [DHA]	DHA inhibited all three catalytic subunits of proteasomes derived from Kelch13^WT	DHA inhibited all three catalytic subunits of proteasomes derived from Kelch13^WT	DHA inhibited all three catalytic subunits of proteasomes derived from Kelch13^WT		
c1cc(C2CCC3(CC2)OOC2(O3)C3CC4CC(C3)CC2C4)ccc1OCCN1CCOCC1 (centres unmarked) [OZ439]				28	52
